Usually IC50 stands for the concentration needed to halve the response being measured.

The record followed here is patent US20230233569A1 (Revolution Medicines, Inc., priority 2020, published 2023).

Holding throughout (assay): Ras-Raf disruption / FRET / MOA assay (BRAF RBD)
Common to all, as to format: biochemical

Assay [1] has as its target KRAS G12C (Homo sapiens, UniProt P01116+P62937, G12C). The conditions noted are these: Ras-Raf disruption, with Cyclophilin A; read-out: KRAS G12C FRET data IC50. The method in brief:
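TR-FRET read-out after 1.5 h with anti-His Eu-W1024 (10 nM) and anti-GST APC (50 nM), following 3 h at 25 °C of compound (top 30 μM, 3-fold, 10 points) with 25 μM Cyclophilin A, 12.5 nM GMPPNP-loaded K-Ras G12C and 50 nM BRAF RBD; IC50 reported.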

Assay [2] concerns the target NRAS G12C (Homo sapiens, UniProt P01111+P62937, G12C). To be noted: NRAS G12C; read-out: NRAS G12C FRET data IC50. The method in brief: (§1)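 Compound-induced Ras–Cyclophilin A ternary complex disrupting BRAF RBD binding, read as IC50 from reduced TR-FRET ratio relative to DMSO. Final: Ras-GMPPNP 12.5 nM, BRAF RBD 50 nM, Cyclophilin A 25 μM, top compound 30 μM (3-fold, 10 points); 3 h at 25 °C, then 1.5 h with detection antibodies.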

For assay [3], the target named is KRAS G12S (Homo sapiens, UniProt P01116+P62937, G12S). To be noted: Ras-Raf disruption, with Cyclophilin A; read-out: KRAS G12S FRET data IC50. In a few lines: as §1
Chain of KRAS G12S (P01116 1-169 isoform P01116-2 G12S limits assumed): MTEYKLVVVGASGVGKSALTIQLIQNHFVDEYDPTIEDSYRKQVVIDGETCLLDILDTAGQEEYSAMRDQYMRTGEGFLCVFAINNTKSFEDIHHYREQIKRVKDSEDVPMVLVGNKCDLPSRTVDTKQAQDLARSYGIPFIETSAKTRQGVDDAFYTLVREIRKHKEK
Chain of KRAS G12S (P62937 whole entry): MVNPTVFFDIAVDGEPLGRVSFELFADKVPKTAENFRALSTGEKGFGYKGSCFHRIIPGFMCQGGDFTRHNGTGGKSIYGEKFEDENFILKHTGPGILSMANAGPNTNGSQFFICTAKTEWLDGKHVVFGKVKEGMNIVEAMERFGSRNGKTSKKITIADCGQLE
Assay [4] has as its target KRAS WT (Homo sapiens, UniProt P01116+P62937). The conditions noted are these: Ras-Raf disruption, with Cyclophilin A; read-out: KRAS WT FRET data IC50. In a few lines: as §1
For assay [5], the target named is KRAS G13D (Homo sapiens, UniProt P01116+P62937, G13D). To be noted: Ras-Raf disruption, with Cyclophilin A; read-out: KRAS G13D FRET data IC50. The method in brief:
as §1

Assay [6] deals with NRAS Q61K (Homo sapiens, UniProt P01111+P62937, Q61K). To be noted: NRAS Q61K; read-out: NRAS Q61K FRET data IC50. In a few lines: as §1
Chain of NRAS Q61K (P01111 whole entry Q61K): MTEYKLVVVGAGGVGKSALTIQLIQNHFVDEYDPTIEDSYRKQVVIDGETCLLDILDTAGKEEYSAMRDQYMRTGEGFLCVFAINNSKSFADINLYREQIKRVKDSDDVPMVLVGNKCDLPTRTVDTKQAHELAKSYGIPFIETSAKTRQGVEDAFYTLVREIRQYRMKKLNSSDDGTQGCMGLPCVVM
Chain of NRAS Q61K (P62937 whole entry): as the sequence (P62937 whole entry) above
For assay [7], the target named is NRAS Q61R (Homo sapiens, UniProt P01111+P62937, Q61R). To be noted: NRAS Q61R; read-out: NRAS Q61R FRET data IC50. In a few lines:
as §1

The target of assay [8] is NRAS WT (Homo sapiens, UniProt P01111+P62937). To be noted: NRAS WT; read-out: NRAS WT FRET data IC50. In a few lines:
as §1

Assay [9] concerns the target KRAS G12D (Homo sapiens, UniProt P01116+P62937, G12D). To be noted: Ras-Raf disruption, with Cyclophilin A; read-out: KRAS G12D FRET data IC50. In a few lines:
as §1

For assay [10], the target named is KRAS Q61H (Homo sapiens, UniProt P01116+P62937, Q61H). To be noted: KRAS Q61H; read-out: KRAS Q61H FRET data IC50. The method in brief: as §1
Chain of KRAS Q61H (P01116 1-169 isoform P01116-2 Q61H limits assumed): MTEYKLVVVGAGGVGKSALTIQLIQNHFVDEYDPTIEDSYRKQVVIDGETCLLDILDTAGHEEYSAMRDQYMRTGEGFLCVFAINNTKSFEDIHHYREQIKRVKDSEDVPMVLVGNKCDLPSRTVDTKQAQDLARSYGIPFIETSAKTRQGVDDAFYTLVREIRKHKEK
Chain of KRAS Q61H (P62937 whole entry): as the sequence (P62937 whole entry) above
Assay [11] concerns the target KRAS G13C (Homo sapiens, UniProt P01116+P62937, G13C). The conditions noted are these: Ras-Raf disruption, with Cyclophilin A; read-out: KRAS G13C FRET data IC50. The method in brief: as §1
Assay [12] deals with KRAS G12V (Homo sapiens, UniProt P01116+P62937, G12V). To be noted: Ras-Raf disruption, with Cyclophilin A; read-out: KRAS G12V FRET data IC50. The method in brief: as §1
Chain of KRAS G12V (P01116 1-169 isoform P01116-2 G12V limits assumed): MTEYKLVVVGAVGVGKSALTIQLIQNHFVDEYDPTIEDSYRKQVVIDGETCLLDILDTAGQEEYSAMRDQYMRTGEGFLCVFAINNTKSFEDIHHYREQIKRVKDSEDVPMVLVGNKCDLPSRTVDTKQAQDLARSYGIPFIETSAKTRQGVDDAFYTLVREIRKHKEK
Chain of KRAS G12V (P62937 whole entry): as the sequence (P62937 whole entry) above

Chain of KRAS WT (P01116 1-169 isoform P01116-2 limits assumed): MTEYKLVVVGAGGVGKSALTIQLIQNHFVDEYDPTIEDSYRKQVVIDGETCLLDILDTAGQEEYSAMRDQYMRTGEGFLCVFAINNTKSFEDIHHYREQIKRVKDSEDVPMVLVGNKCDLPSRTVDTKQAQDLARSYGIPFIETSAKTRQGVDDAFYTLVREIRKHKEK
Chain of KRAS WT (P62937 whole entry): as the sequence (P62937 whole entry) above
Chain of NRAS G12C (P01111 whole entry G12C): as the sequence (P01111 whole entry Q61K) above, with G12C, K61Q counted along it
Chain of NRAS G12C (P62937 whole entry): as the sequence (P62937 whole entry) above
Chain of NRAS WT (P01111 whole entry): as the sequence (P01111 whole entry Q61K) above, with K61Q counted along it
Chain of NRAS WT (P62937 whole entry): as the sequence (P62937 whole entry) above
Chain of KRAS G12D (P01116 1-169 isoform P01116-2 G12D limits assumed): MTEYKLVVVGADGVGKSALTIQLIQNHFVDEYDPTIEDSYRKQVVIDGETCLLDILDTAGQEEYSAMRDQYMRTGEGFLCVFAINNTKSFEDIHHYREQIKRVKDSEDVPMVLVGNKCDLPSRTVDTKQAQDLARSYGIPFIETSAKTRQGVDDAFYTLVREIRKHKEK
Chain of KRAS G12D (P62937 whole entry): as the sequence (P62937 whole entry) above
Chain of NRAS Q61R (P01111 whole entry Q61R): as the sequence (P01111 whole entry Q61K) above, with K61R counted along it
Chain of NRAS Q61R (P62937 whole entry): as the sequence (P62937 whole entry) above
Chain of KRAS G12C (P01116 1-169 isoform P01116-2 G12C limits assumed): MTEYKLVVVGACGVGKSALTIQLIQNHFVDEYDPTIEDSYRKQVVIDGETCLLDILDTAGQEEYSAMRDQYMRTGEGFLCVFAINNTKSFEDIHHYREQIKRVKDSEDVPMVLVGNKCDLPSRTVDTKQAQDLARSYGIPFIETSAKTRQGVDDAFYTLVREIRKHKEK
Chain of KRAS G12C (P62937 whole entry): as the sequence (P62937 whole entry) above
Chain of KRAS G13C (P01116 1-169 isoform P01116-2 G13C limits assumed): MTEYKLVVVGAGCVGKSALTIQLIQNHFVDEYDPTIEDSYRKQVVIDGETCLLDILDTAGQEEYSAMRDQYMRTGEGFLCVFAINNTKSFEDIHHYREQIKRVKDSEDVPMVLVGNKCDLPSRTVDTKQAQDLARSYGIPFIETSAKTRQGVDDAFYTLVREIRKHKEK
Chain of KRAS G13C (P62937 whole entry): as the sequence (P62937 whole entry) above
Chain of KRAS G13D (P01116 1-169 isoform P01116-2 G13D limits assumed): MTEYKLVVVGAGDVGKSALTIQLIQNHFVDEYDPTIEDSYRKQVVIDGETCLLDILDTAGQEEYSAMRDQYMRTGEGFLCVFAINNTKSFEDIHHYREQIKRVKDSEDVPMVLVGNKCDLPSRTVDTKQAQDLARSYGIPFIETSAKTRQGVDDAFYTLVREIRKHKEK
Chain of KRAS G13D (P62937 whole entry): as the sequence (P62937 whole entry) above

For the compound `CCn1c(-c2cccnc2[C@H](C)OC)c2c3cc(ccc31)-c1csc(n1)C[C@H](NC(=O)[C@H](C(C)C)N(C)C(=O)N1CCC(CN(C)C(=O)[C@H]3CN3)CC1)C(=O)N1CCC[C@H](N1)C(=O)OCC(C)(C)C2` (atropisomer, axis not shown) [Example 326], the IC50 in assay [1] is 0.01 to 0.1 µM; in [2], 0.01 to 0.1 µM; in assay [3] it was 0.01 to 0.1 µM; in assay [4], 0.01 to 0.1 µM; in assay [5], 0.1 to 1 µM; in [6], 0.01 to 0.1 µM. In addition, the IC50 was in the range of 0.01 to 0.1 µM in assay [7]; 0.01 to 0.1 µM in assay [8]; 0.1 to 1 µM in [9]; 0.01 to 0.1 µM in assay [10]; 0.01 to 0.1 µM in assay [11]; 0.01 to 0.1 µM in [12].

Turning to `CCn1c(-c2cccnc2[C@H](C)OC)c2c3cc(ccc31)-c1csc(n1)C[C@H](NC(=O)[C@H](C(C)C)N(C)C(=O)N(C)[C@H]1CCCN(C(=O)[C@H]3CN3)C1)C(=O)N1CCC[C@H](N1)C(=O)OCC(C)(C)C2` (atropisomer, axis not shown) [Example 295], the IC50 in assay [1] is 0.1 to 1 µM; in assay [2] it was 0.1 to 1 µM; in assay [3], 1 to 10 µM; in [4] it was 0.1 to 1 µM; in assay [5] it was 1 to 10 µM; in assay [6], 0.1 to 1 µM. Besides, the IC50 in assay [7] is 1 to 10 µM; in assay [8] it was 0.1 to 1 µM; in [9], 1 to 10 µM; in assay [10], 0.1 to 1 µM; in assay [11] it was 1 to 10 µM; in assay [12] it was 1 to 10 µM.

`CCn1c(-c2cccnc2[C@H](C)OC)c2c3cc(ccc31)-c1csc(n1)C[C@H](NC(=O)[C@H](C(C)C)N(C)C(=O)N1CCN(C(=O)[C@H]3CN3)[C@H](C)C1)C(=O)N1CCC[C@H](N1)C(=O)OCC(C)(C)C2` [Example 299]: the IC50 in assay [1] was in the range of 0.01 to 0.1 µM; in assay [2], 0.01 to 0.1 µM; in assay [3] it was 0.1 to 1 µM; in [4], 0.1 to 1 µM; in [5], 0.1 to 1 µM; in assay [6], 0.01 to 0.1 µM. The IC50 lay within 0.1 to 1 µM in assay [7]; 0.1 to 1 µM in assay [8]; 0.1 to 1 µM in assay [9]; 0.01 to 0.1 µM in [10]; 0.1 to 1 µM in assay [11]; 0.1 to 1 µM in [12].

`CCn1c(-c2cccnc2[C@H](C)OC)c2c3cc(ccc31)-c1cc(O)cc(c1)C[C@H](NC(=O)[C@H](C(C)C)N(C)C(=O)[C@H]1C[C@H]3CC[C@@H](C1)N3C(=O)[C@H]1CN1)C(=O)N1CCC[C@H](N1)C(=O)OCC(C)(C)C2` (atropisomer, axis not shown) [Example 245]: the IC50 in assay [1] lay within 0.01 to 0.1 µM; in assay [2], 0.01 to 0.1 µM; in assay [3], 0.1 to 1 µM; in assay [4], 0.01 to 0.1 µM; in assay [5], 0.1 to 1 µM; in [6], 0.1 to 1 µM. For the same compound, the IC50 in [7] lay within 0.1 to 1 µM; in [8], 0.01 to 0.1 µM; in assay [9], 0.1 to 1 µM; in assay [10], 0.01 to 0.1 µM; in [11], 0.01 to 0.1 µM; in assay [12], 0.1 to 1 µM.
